What was measured:
[1] = tested on: HIV-1 YU-2 luciferase reporter virus in U87-CD4-CCR5 cells; test: Luciferase Replication assay (HIV replication); format: cell-based; conditions: Human immunodeficiency virus 1, U87/CD4/CCR5, 72 h, read-out: HIV Replication IC50 luciferase (nM, Yu-2)
Description: Luciferase Replication Assay:
Plasmids encoding the full length genome of HIV-1 pNL-4-Luc with the gp 120 V-3 loop replaced by the Bgl II fragment of HIV-1 ADA, YU-2 or HxB (ADA-Luc-FL, YU-2-Luc-FL and HxB-Luc-FL) were obtained from Dr. Susan Pontow (Washington University, St. Louis Mo.). Replication-competent luciferase reporter virus stocks were generated by transfection of plasmids into 293T cells using Superfect (Qiagen) or Mirus transfection reagents. Viral stocks were collected 48 hours following transfection and titered for luciferase production on U-87-CCR5 or CXCR4 cells. U87-CD4-CCR5 cells ([…]) were plated in 96-well cell culture plates and incubated overnight. Media was removed and replaced with 50 μl of fresh culture media (DMEM, 10% FCS) and 50 μl of compound diluted in culture medium. Cells were incubated with compound at 37° C. for 1 hour. The resultant supernatant was removed and replaced with 20 μl of media containing compound and infected with an equal volume of diluted or undiluted virus stock at 37° C. for 3-4 hours. The cells were washed once with DMEM, and 200 μl of media containing compound was added. The cultures were incubated for 3 days, the cells lysed in luciferase lysis buffer (Promega, Madison, Wis.) and transferred to Immulon plates (Dynex Technologies, Chantilly Va.). An equal volume of luciferase substrate (Promega, Madison Wis.) was added to lysates and the plates read immediately in a Wallac Luminometer. Fifty and ninety percent inhibitory concentrations were determined using GraphPad PRISM software.

SMILES | melting point | IC50 [1]
Cc1nn(O)c(C)c1C(=O)N1CCC(C)(N2CCN([C@@H](c3cccc(F)c3)C3CCN(S(=O)(=O)C4CC4)CC3)[C@@H](C)C2)CC1 | 214 to 215 °C | 43 nM
CC[C@@H](c1ccc(C(F)(F)F)cc1)N1CCN(C2(C)CCN(C(=O)c3c(C)nn(O)c3C)CC2)C[C@@H]1C | – | > 100 nM
COC[C@@H](c1ccc(C(F)(F)F)cc1)N1CCN(C2(C)CCN(C(=O)c3c(C)nn(O)c3C)CC2)C[C@@H]1C | – | 8 nM
COC[C@@H](c1ccc(C(F)(F)F)cc1)N1CCN(C2(C)CCN(C(=O)c3c(C)nn(OCc4ccccc4)c3C)CC2)C[C@@H]1C | – | 0.4 nM

Reference: patent US7659275B2, “Piperidinyl piperazine derivatives useful as inhibitors of chemokine receptors” (priority 2005, dated 2010)
